Each structure is given as a SMILES string. Where a SMILES comes first, the peptide text is derived from it.

The test system of test [1] is peptide-forming enzyme (Mono S fraction enzyme). The test is described as follows: Enzyme substrate specificity (1)-(10), (13), (14): peptide production. It is filed as biochemical, Empedobacter brevis. The conditions noted are these: pH 9.0, 25° C., 3 hours. The gist of the method:
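Mono S enzyme fraction in 100 mM borate buffer (pH 9.0) with 10 mM EDTA and 100 mM carboxy component (amino acid methyl esters or amides); amine components (L-glutamine, amino acids, amino acid amides or methylamine) at 150 mM, or 200 mM L-glutamine with varied esters. Reactions ran at 25° C for 2–3 hours; 0.1% Tween-80 added for Trp/Tyr-OMe.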

Test [2] relates to SP-Sepharose HP fraction enzyme. The test is described as follows: Production of L-alanyl-L-glutamine using enzyme fraction of Sphingobacterium sp. Format: biochemical. As to conditions: 10 μl fraction (about 27 U/ml) + 90 μl buffer with 111 mM L-alanine methyl ester hydrochloride, 222 mM L-glutamine; pH 9.0, 25° C., 120 minutes. How it is done: The following procedure after centrifugation was carried out either on ice or at 4° C. Sphingobacterium sp. strain FERM BP-8124 (Depositary institution: the independent administrative corporation, National Institute of Advanced Industrial Science and Technology, International Patent Organism Depositary, Address of depositary institution: Chuo Dai-6, 1-1 Higashi 1-Chome, Tsukuba-shi, Ibaraki-ken, Japan, International deposit date: Jul. 22, 2002) was cultured in the same manner as Example 21, and the microbial cells were collected by centrifugation (10,000 rpm, 15 minutes). After washing 2 g of microbial cells with 20 mM Tris-HCl buffer (pH 7.6), they were suspended in 8 ml of the same buffer and subjected to ultrasonic crushing treatment for 45 minutes at 195 W. This ultrasonic crushed suspension was then centrifuged (10,000 rpm, 30 minutes) to remove the crushed cell fragments and obtain a supernatant. This supernatant was dialyzed overnight against 20 mM Tris-HCl buffer (pH 7.6) followed by removal of the insoluble fraction by ultracentrifugation (50,000 rpm, 30 minutes) to obtain a soluble fraction in the form of the supernatant liquid. The resulting soluble fraction was applied to a Q-Sepharose HP column (manufactured by Amersham) pre-equilibrated with Tris-HCl buffer (pH 7.6), and the active fraction was collected from the non-adsorbed fraction. […]

For `C[C@H](N)C(=O)N[C@@H](CCC(N)=O)C(=O)O` [L-Ala-L-Gln, L-alanyl-L-glutamine] (H-Ala-Gln-OH), the Formed peptide in test [1] (100 mM L-alanine methyl ester hydrochloride, L-amino acid 150 mM) was 79.3 mM; in test [1] (L-amino acid amide hydrochloride as carboxy component 100 mM, L-amino acid 150 mM), 7.6 mM; in test [1] (L-amino acid methyl ester hydrochloride 100 mM, 150 mM L-glutamine), 74.6 mM. In test [2], the “L-alanyl-L-glutamine formed, enzyme-added lot” value came out at 73 mM.

The record behind these values is patent US20040204577A1, “Novel peptide-forming enzyme gene” (Ajinomoto Co., Inc., priority 2003, published 2004).
